The test concerns the target HLA-A*02:01 (Homo sapiens, UniProt P04439, D140Y/D185E/D98H/E176V/E277Q/G131W/G231S/I119V/I121R/I166T/I218V/L300P/L318F/N151K/N90K/P208A/P217A/Q86G/Q94H/R138H/R169H/T345S). In words: HLA-peptide competition binding assay, A*02:01.
Setting [1] is: read-out: IC50 nM, target assay A*02:01.
[2] abbreviates: unmodified (wild type) insulin-derived peptide, radiolabeled ligand competition, purified MHC, two-day incubation, three or more independent experiments, read-out: A*02:01 binding, WT.
The mark [3] stands for this setting: post-translationally modified insulin peptide, competition binding assay, a dash indicates IC50 >40,000 nM, read-out: A*02:01 binding (IC50 nM) Modified.
Setting [4] is: read-out: A*02:01 binding (IC50 nM) WT.
The mark [5] stands for this setting: unmodified (WT) insulin peptide, competition binding assay, a dash indicates IC50 >40,000 nM, read-out: A*02:01 binding (IC50 nM) WT.

Where two headings read alike, the source gives them in different places. *1 amine or outer side, *2 acyl side, *3 side chain or, on linkers, in order; H or OH if unused. Where a SMILES comes first, the peptide text is derived from it. Where no end group is shown, it is not given here. [ ]: non-standard residue; d: D form. γGlu = O=C(O)[C@H](CCC(=O)[*:2])N[*:1]; βAsp = O=C(O)[C@H](CC(=O)[*:2])N[*:1]; Cya = N[C@@H](CS(=O)(=O)O)C(=O)O; Cit = NC(=O)NCCC[C@H](N)C(=O)O

LLQEYNWEL [reference compound]: under setting [1], the IC50 stood at 35 nM.
As to `CC(C)C[C@H](NC(=O)[C@H](C)NC(=O)[C@@H](N)CCC(=O)O)C(=O)N[C@@H](Cc1ccc(O)cc1)C(=O)N[C@@H](CC(C)C)C(=O)N[C@H](C(=O)N[C@@H](CS)C(=O)NCC(=O)N[C@@H](CCC(=O)O)C(=O)N[C@@H](CCCNC(N)=O)C(=O)O)C(C)C` (H-EALYLVCGE[Cit]-OH), the IC50 amounted to 3100 nM.
For GERGYYYTP, the IC50 (read-out: A*02:01 binding (IC50 nM) Modified, post-translationally modified insulin peptide, competition binding assay, a dash indicates IC50 >40,000 nM) was more than 40000 nM.
As to LLQVHHSCPL [reference compound], the IC50 came out at 3090 nM.
On to CGSHLVEALY, for which the IC50 under setting [2] was 33700 nM.
Turning to `CC(C)C[C@H](NC(=O)[C@H](Cc1c[nH]cn1)NC(=O)[C@@H](N)CCC(N)=O)C(=O)N[C@@H](CS(=O)(=O)O)C(=O)NCC(=O)N[C@@H](CO)C(=O)N[C@@H](Cc1c[nH]cn1)C(=O)N[C@@H](CC(C)C)C(=O)N[C@H](C(=O)N[C@@H](CCC(=O)O)C(=O)O)C(C)C` [QHLBGSHLVE] (H-QHL[Cya]GSHLVE-OH; N-terminus and C-terminus assumed), the IC50 under setting [3] was more than 40000 nM.
Still for that read-out and setting: the value for ERGYFYTPK was more than 40000 nM.
As for EALYLVCGER, the IC50 under setting [2] came out at 10100 nM.
Turning to LCGSHLVEA, under setting [4], the IC50 came out at 1350 nM.
Regarding LQKRGIVEQC, under setting [5], the IC50 was more than 40000 nM.
As for SLYQLENYC [reference compound], the IC50 under setting [1] came out at 16900 nM.
The same measure, in the same setting: the value for IQATVMIIV [reference compound] was 9040 nM.
For `CC(C)C[C@H](NC(=O)[C@H](CC(=O)O)NC(=O)[C@H](CCC(=O)O)NC(=O)[C@H](C)NC(=O)[C@H](CCC(=O)O)NC(=O)[C@H](CCCNC(N)=O)NC(=O)[C@@H](N)CCCNC(N)=O)C(=O)N[C@@H](CCC(N)=O)C(=O)N[C@H](C(=O)O)C(C)C` (H-[Cit][Cit]EAEDLQV-OH; N-terminus and C-terminus assumed), the IC50 under setting [3] was more than 40000 nM.
Turning to `C[C@@H](O)[C@H](NC(=O)[C@H](CCCCN)NC(=O)[C@@H]1CCCN1C(=O)[C@@H](NC(=O)[C@H](Cc1ccc(O)cc1)NC(=O)[C@H](Cc1ccccc1)NC(=O)[C@H](Cc1ccccc1)NC(=O)CNC(=O)[C@@H](N)CCCNC(=N)N)[C@@H](C)O)C(=O)N[C@@H](CCCNC(=N)N)C(=O)O`, under setting [5], the IC50 is more than 40000 nM.
The molecule `CSCC[C@H](NC(=O)[C@@H](N)Cc1c[nH]c2ccccc12)C(=O)N[C@@H](CCCNC(N)=O)C(=O)N[C@@H](CC(C)C)C(=O)N[C@@H](CC(C)C)C(=O)N1CCC[C@H]1C(=O)N[C@@H](CC(C)C)C(=O)N[C@@H](CC(C)C)C(=O)N[C@@H](C)C(=O)O` (H-WM[Cit]LLPLLA-OH) yielded an IC50 of 1010 nM.
Turning to GSHLVEALYL, the IC50 under setting [4] was found to be 1770 nM.
As for LLGRFELIGI [reference compound], the IC50 under setting [1] was found to be 233 nM.
Consider `CSCC[C@H](N)C(=O)N[C@@H](CCCNC(N)=O)C(=O)N[C@@H](CC(C)C)C(=O)N[C@@H](CC(C)C)C(=O)N1CCC[C@H]1C(=O)N[C@@H](CC(C)C)C(=O)N[C@@H](CC(C)C)C(=O)N[C@@H](C)C(=O)N[C@@H](CC(C)C)C(=O)N[C@@H](CC(C)C)C(=O)O` (H-M[Cit]LLPLLALL-OH), for which the IC50 (read-out: A*02:01 binding (IC50 nM) Modified) worked out at 98 nM.
Take RLLPLLALLA: the IC50 under setting [4] is 11 nM.
Take `CC(C)C[C@H](NC(=O)[C@H](Cc1c[nH]cn1)NC(=O)CC[C@H](NC(=O)C[C@H](NC(=O)[C@@H](NC(=O)[C@@H](N)Cc1ccccc1)C(C)C)C(=O)O)C(=O)O)C(=O)N[C@@H](CS)C(=O)NCC(=O)N[C@@H](CO)C(=O)O` [FVOZHLCGS] (H-FV[βAsp][γGlu]HLCGS-OH; N-terminus and C-terminus assumed): the IC50 under setting [3] is more than 40000 nM.
Regarding `CSCC[C@H](NC(=O)[C@H](Cc1c[nH]c2ccccc12)NC(=O)[C@H](CC(C)C)NC(=O)[C@H](C)N)C(=O)N[C@@H](CCCNC(N)=O)C(=O)N[C@@H](CC(C)C)C(=O)N[C@@H](CC(C)C)C(=O)N1CCC[C@H]1C(=O)N[C@@H](CC(C)C)C(=O)O` (H-ALWM[Cit]LLPL-OH), the IC50 (post-translationally modified insulin-derived peptide, radiolabeled ligand competition, purified MHC, two-day incubation, three or more independent experiments, read-out: A*02:01 binding, Modified) is 28 nM.
Turning to QKRGIVEQC, under setting [5], the IC50 is more than 40000 nM.
